In patent US8895504B2, “Amylin derivatives” (priority 2008, dated 2014):
pEC50: −log10 of the molar value. *1 amine or outer side, *2 acyl side, *3 side chain or, on linkers, in order; H or OH if unused. Where a SMILES comes first, the peptide text is derived from it. Bridges are numbered along the chain shown (N, C = ends). The star is where a group is joined. C20 diacid = O=C(O)CCCCCCCCCCCCCCCCCCC(=O)*; C18 diacid = O=C(O)CCCCCCCCCCCCCCCCC(=O)*; γGlu = O=C(O)[C@H](CCC(=O)[*:2])N[*:1]

What was measured:
[1] = target: T1, Amylin 3(a) receptor (human calcitonin receptor (CTa) and RAMP-3) (Homo sapiens, UniProt O60896+P30988); assay: Luciferase assay (III), BHK Amylin 3(a)//CRE-luc cells; format: cell-based; settings: BHK cells with Amylin 3(a) receptor and CRE luciferase reporter, 4 hours incubation; read-out: Potency Luciferase
T1 construct: expressed in transfected cells; host or cells: BHK570 cells, stably transfected with a CRE-luciferase reporter
T1 sequence (O60896 24-148): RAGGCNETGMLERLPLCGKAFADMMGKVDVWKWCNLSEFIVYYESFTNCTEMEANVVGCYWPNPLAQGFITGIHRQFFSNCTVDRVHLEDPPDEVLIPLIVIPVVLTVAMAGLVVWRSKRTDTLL
T1 sequence (P30988 25-474): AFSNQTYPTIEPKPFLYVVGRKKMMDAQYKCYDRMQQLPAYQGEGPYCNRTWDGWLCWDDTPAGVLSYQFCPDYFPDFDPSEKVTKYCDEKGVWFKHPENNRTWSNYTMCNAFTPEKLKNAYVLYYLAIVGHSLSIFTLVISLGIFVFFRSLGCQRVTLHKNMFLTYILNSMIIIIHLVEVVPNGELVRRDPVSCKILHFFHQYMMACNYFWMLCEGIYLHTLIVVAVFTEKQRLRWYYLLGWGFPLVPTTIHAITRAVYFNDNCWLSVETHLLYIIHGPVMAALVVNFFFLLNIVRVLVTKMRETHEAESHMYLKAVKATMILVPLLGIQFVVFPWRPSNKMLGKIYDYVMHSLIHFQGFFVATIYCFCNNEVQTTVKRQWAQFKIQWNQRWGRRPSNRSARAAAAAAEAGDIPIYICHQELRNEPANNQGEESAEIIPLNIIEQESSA
Outline: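 Read-out is CRE-driven luciferase luminescence, taken 30 min after LucLite addition at room temperature. Compounds were incubated 4 h at 37° C in assay medium (10% FBS, 10 mM Hepes, pH 7,4). The cell line is BHK570 co-transfected with human calcitonin receptor CTa and RAMP-3, seeded overnight before use.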

[2] = Assay (V) PK - determination of T½ in mini-pig; format: in vivo; settings: minipig, sc, terminal plasma half-life, subcutaneous, approx 2 nmol/kg, male Göttingen mini-pigs
Outline: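 Male Göttingen mini-pigs (5–12 months, 7–35 kg) got a single s.c. neck injection of approx 2 nmol/kg; plasma sampled via central venous catheter predose to 240 h (some to 288 h). Amylin measured by sandwich ELISA; T½ = ln 2/λz from non-compartmental analysis of individual profiles.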

[3] = Assay (VI) PK - determination of T½ in rat; format: in vivo; settings: sc, terminal plasma half-life, subcutaneous, approx 20 nmol/kg, male Sprague Dawley rats
Experimental: Assay (VI) PK—Determination OF T½ in Rat
T½ is the terminal half-life=ln 2/λz of a compound in plasma. λz is the first order rate constant associated with the terminal (log-linear) portion of the plasma concentration-time curve and is estimated by linear regression of time vs. log concentration.
T½ values of the amylin analogues of the invention is determined by pharmacokinetic studies in Sprague Dawley male rats, from Taconic Europe and the principles of laboratory animal care are followed.
An acclimatization period of approximately 7 days was allowed before the animals entered the study. At start of the acclimatization period the rats were in the weight range of 300-400 g. The rats had permanent catheters inserted in a. carotis which were used for blood sampling.
The studies were conducted in an animal room which was illuminated to give a cycle of approx 12 hours light and 12 hours darkness. The animals were housed individually due to the catheters and had food and water ad lib. The animals were weighed on the days of dosing.
In the present studies the test substances were administered subcutaneously in approx 20 nmol/kg dose. The animals received a single subcutaneous injection to the neck using a 25 G needle with syringe. Each test substance was given to typically three but in some cases two or four animals.
A full plasma concentration-time profile, employing 8-10 sampling points, was obtained from each animal. In example blood samples were collected according to the following schedule:
After subcutaneous administration:
Predose (0), 0.5, 1, 1.5, 2, 4, 6, 12, 24, 48 and 72 hours after injection. At each sampling time, 0.08 to 0.10 ml of blood was drawn from each animal. The blood samples were taken via the catheter.
The blood samples were collected into EDTA test tubes. Blood samples were kept on ice for max 20 min. before centrifugation. Plasma was separated using centrifugation (i.e. at 4° C., 10 min., 1500 G) and was immediately transferred to Micronic tubes or PCR plates. Approximately 40 μl plasma was transferred and was stored at −20° C. until assayed. The plasma samples were assayed for the content of amylin using an ELISA assay.
The plasma concentration-time profiles were analysed by a non-compartmental pharmacokinetic analysis (NCA) using WinNonlin Professional 5.0 (Pharsight Inc., Mountain View, Calif., USA). NCA was performed using the individual plasma concentration-time profiles from each animal. T½ is the terminal half-life=ln 2/λz and was determined from λz, the first order rate constant associated with the terminal (log-linear) portion of the curve, estimated by linear regression of time vs. log concentration.
ELISA Plasma Assay for Amylin Quantification
The human amylin ELISA is a monoclonal antibody-based sandwich immunoassay for determining amylin levels in human plasma. The capture antibody recognizes human amylin, amylin acid (deamidated amylin), a 1-20 fragment of amylin, but not reduced amylin. The detection antibody binds to reduced or unreduced human amylin but not amylin acid and is complexed with streptavidin-alkaline phosphatase. The substrate, 4-methylumbelliferyl phosphate, is applied to the completed sandwich and the fluorescent signal, monitored at 355 nm/460 nm, is proportional to the amount of amylin present in the sample.

pEC50 [1]	half-life ([2]; in vivo)	half-life ([3]; in vivo)	half-life [2]	half-life [3]	SMILES
10.00	70 h	16 h	–	–	CC[C@H](C)[C@H](NC(=O)[C@@H]1CCCN1C(=O)CNC(=O)[C@H](Cc1ccccc1)NC(=O)[C@H](CC(N)=O)NC(=O)[C@H](CC(N)=O)NC(=O)[C@H](CO)NC(=O)[C@H](CO)NC(=O)[C@H](Cc1c[nH]cn1)NC(=O)[C@H](Cc1c[nH]cn1)NC(=O)[C@H](CC(C)C)NC(=O)[C@H](Cc1ccccc1)NC(=O)[C@H](CC(N)=O)NC(=O)[C@H](C)NC(=O)[C@H](CC(C)C)NC(=O)[C@H](CCCNC(=N)N)NC(=O)[C@H](CCC(N)=O)NC(=O)[C@@H](NC(=O)[C@H](C)NC(=O)[C@@H]1CSSC[C@H](NC(=O)[C@H](CCCCN)NC(=O)CC[C@H](NC(=O)CCCCCCCCCCCCCCCCCCC(=O)O)C(=O)O)C(=O)N[C@@H](CC(N)=O)C(=O)N[C@@H]([C@@H](C)O)C(=O)N[C@@H](C)C(=O)N[C@@H]([C@@H](C)O)C(=O)N1)[C@@H](C)O)C(=O)N[C@@H](CC(C)C)C(=O)N1CCC[C@H]1C(=O)N1CCC[C@H]1C(=O)N[C@H](C(=O)N[C@@H](CC(N)=O)C(=O)N[C@H](C(=O)NCC(=O)N[C@@H](CO)C(=O)N[C@@H](CC(N)=O)C(=O)N[C@H](C(=O)N[C@@H](Cc1ccc(O)cc1)C(N)=O)[C@@H](C)O)C(C)C)[C@@H](C)O [Example 5, N-alpha-[(S)-4-Carboxy-4-(19-carboxynonadecanoylamino)butyryl]-[His17]-pramlintide] ({C20 diacid-γGlu}-KCNTATCATQRLANFLHHSSNNFGPILPPTNVGSNTY-NH2; disulfide 2-7)
10.00	–	–	34 h	13 h	CC[C@H](C)[C@H](NC(=O)[C@@H]1CCCN1C(=O)CNC(=O)[C@H](Cc1ccccc1)NC(=O)[C@H](CC(N)=O)NC(=O)[C@H](CC(N)=O)NC(=O)[C@H](CO)NC(=O)[C@H](CO)NC(=O)[C@H](Cc1c[nH]cn1)NC(=O)[C@H](CCCNC(=N)N)NC(=O)[C@H](CC(C)C)NC(=O)[C@H](Cc1ccccc1)NC(=O)[C@H](CC(N)=O)NC(=O)[C@H](C)NC(=O)[C@H](CC(C)C)NC(=O)[C@H](CCCNC(=N)N)NC(=O)[C@H](CCC(N)=O)NC(=O)[C@@H](NC(=O)[C@H](C)NC(=O)[C@@H]1CSSC[C@H](NC(=O)[C@H](CCCCN)NC(=O)[C@H](CCCNC(=N)N)NC(=O)CC[C@H](NC(=O)CCCCCCCCCCCCCCCCCCC(=O)O)C(=O)O)C(=O)N[C@@H](CC(N)=O)C(=O)N[C@@H]([C@@H](C)O)C(=O)N[C@@H](C)C(=O)N[C@@H]([C@@H](C)O)C(=O)N1)[C@@H](C)O)C(=O)N[C@@H](CC(C)C)C(=O)N1CCC[C@H]1C(=O)N1CCC[C@H]1C(=O)N[C@H](C(=O)N[C@@H](CC(N)=O)C(=O)N[C@H](C(=O)NCC(=O)N[C@@H](CO)C(=O)N[C@@H](CC(N)=O)C(=O)N[C@H](C(=O)N[C@@H](Cc1ccc(O)cc1)C(N)=O)[C@@H](C)O)C(C)C)[C@@H](C)O [Example 22, N-alpha-[(S)-4-Carboxy-4-(19-carboxynonadecanoylamino)butyryl]-Arg-[Arg17]-pramlintide] ({C20 diacid-γGlu}-RKCNTATCATQRLANFLRHSSNNFGPILPPTNVGSNTY-NH2; disulfide 3-8)
10.00	–	–	41 h	10 h	CC[C@H](C)[C@H](NC(=O)[C@@H]1CCCN1C(=O)CNC(=O)[C@H](Cc1ccccc1)NC(=O)[C@H](CC(N)=O)NC(=O)[C@H](CC(N)=O)NC(=O)[C@H](CO)NC(=O)[C@H](CO)NC(=O)[C@H](Cc1c[nH]cn1)NC(=O)[C@H](CO)NC(=O)[C@H](CC(C)C)NC(=O)[C@H](Cc1ccccc1)NC(=O)[C@H](CC(N)=O)NC(=O)[C@H](C)NC(=O)[C@H](CC(C)C)NC(=O)[C@H](CCCNC(=N)N)NC(=O)[C@H](CCC(N)=O)NC(=O)[C@@H](NC(=O)[C@H](C)NC(=O)[C@@H]1CSSC[C@H](NC(=O)[C@H](CCCCN)NC(=O)[C@H](CCCNC(=N)N)NC(=O)CC[C@H](NC(=O)CCCCCCCCCCCCCCCCCCC(=O)O)C(=O)O)C(=O)N[C@@H](CC(N)=O)C(=O)N[C@@H]([C@@H](C)O)C(=O)N[C@@H](C)C(=O)N[C@@H]([C@@H](C)O)C(=O)N1)[C@@H](C)O)C(=O)N[C@@H](CC(C)C)C(=O)N1CCC[C@H]1C(=O)N1CCC[C@H]1C(=O)N[C@H](C(=O)N[C@@H](CC(N)=O)C(=O)N[C@H](C(=O)NCC(=O)N[C@@H](CO)C(=O)N[C@@H](CC(N)=O)C(=O)N[C@H](C(=O)N[C@@H](Cc1ccc(O)cc1)C(N)=O)[C@@H](C)O)C(C)C)[C@@H](C)O [Example 20, N-alpha-[(S)-4-Carboxy-4-(19-carboxynonadecanoylamino)butyryl]-Arg-[Ser17]-pramlintide] ({C20 diacid-γGlu}-RKCNTATCATQRLANFLSHSSNNFGPILPPTNVGSNTY-NH2; disulfide 3-8)
10.10	–	–	66 h	11 h	CC[C@H](C)[C@H](NC(=O)[C@@H]1CCCN1C(=O)CNC(=O)[C@H](Cc1ccccc1)NC(=O)[C@H](CC(N)=O)NC(=O)[C@H](CC(N)=O)NC(=O)[C@H](CO)NC(=O)[C@H](CO)NC(=O)[C@H](Cc1c[nH]cn1)NC(=O)[C@H](Cc1c[nH]cn1)NC(=O)[C@H](CC(C)C)NC(=O)[C@H](Cc1ccccc1)NC(=O)[C@H](CC(N)=O)NC(=O)[C@H](C)NC(=O)[C@H](CC(C)C)NC(=O)[C@H](CCCNC(=N)N)NC(=O)[C@H](CCC(N)=O)NC(=O)[C@@H](NC(=O)[C@H](C)NC(=O)[C@@H]1CSSC[C@H](NC(=O)CC[C@H](NC(=O)CCCCCCCCCCCCCCCCC(=O)O)C(=O)O)C(=O)N[C@@H](CC(N)=O)C(=O)N[C@@H]([C@@H](C)O)C(=O)N[C@@H](C)C(=O)N[C@@H]([C@@H](C)O)C(=O)N1)[C@@H](C)O)C(=O)N[C@@H](CC(C)C)C(=O)N1CCC[C@H]1C(=O)N1CCC[C@H]1C(=O)N[C@H](C(=O)N[C@@H](CC(N)=O)C(=O)N[C@H](C(=O)NCC(=O)N[C@@H](CO)C(=O)N[C@@H](CC(N)=O)C(=O)N[C@H](C(=O)N[C@@H](Cc1ccc(O)cc1)C(N)=O)[C@@H](C)O)C(C)C)[C@@H](C)O [Example 10, N-alpha-[(S)-4-Carboxy-4-(17-carboxyheptadecanoylamino)butyryl]-[His17]-pramlintide (2-37)] ({C18 diacid-γGlu}-CNTATCATQRLANFLHHSSNNFGPILPPTNVGSNTY-NH2; disulfide 1-6)
